24 compounds from patent US11957671B2, “Benzodioxane modulators of leukotriene A4 hydrolase (LTA4H) for prevention and treatment of aging-associated diseases” (Alkahest, Inc., priority 2021, dated 2024) can be followed below.

pIC50: −log10 of the molar value.

Assay [1] has as its target human LTA4 hydrolase (Homo sapiens (Human), UniProt P09960). Put plainly: LTA4H Enzyme assay (cleavage of Arg-AMC). It is filed as biochemical. Conditions: LTA4H 1 nM, Arg-AMC 50 μM, room temperature 1 h. Here is the method: The compounds of the invention are assessed for the ability to interact with human LTA4 hydrolase in an enzymatic assay that measures the ability of the enzyme to cleave the peptide bond of arginyl-aminomethylcoumarin (Arg-AMC). LTA4H Enzyme (1 nM final), Arg-AMC substrate (50 μM final), and compound are combined in a reaction buffer (50 mM Tris-HCl (pH 7.5), 100 mM KCl, 0.5% bovine serum albumin) at room temperature for 1 h. The formation of product is assessed by measuring the fluorescence of aminomethylcoumarin product (excitation wavelength 380 nm/emission wavelength 460 nm).

Assay [2] relates to synthesis of LTB4 in human whole blood. Put plainly: human whole blood (HWB) assay, LTB4 production inhibition. It is filed as cell-based. As to conditions: calcimycin 20 μM. Here is the method:
The compounds of the invention are additionally tested in a human whole blood (HWB) assay to determine their ability to inhibit the synthesis of LTB4 in a cellular system. Compounds are combined with heparinized human whole blood and incubated for 15 minutes at 37° C. Calcimycin (20 μM final, prepared in phosphate-buffered saline, pH 7.4) is then added and the mixture is incubated for another 30 minutes at 37° C. The samples are centrifuged for 5 min at low speed (1500×g) and the plasma layer is removed. Plasma LTB4 concentrations are then measured using an antibody-based homogenous time-resolved fluorescence method (CisBio, Bedford, Mass.). In general, the preferred potency range (IC50) of compounds in the HWB assay is between 10 nM to 10 μM, the more preferred potency range is 10 nM to 1 μM, and the most preferred potency range is 10 nM to 100 nM.

human LTA4 hydrolase, sequence (P09960 whole entry): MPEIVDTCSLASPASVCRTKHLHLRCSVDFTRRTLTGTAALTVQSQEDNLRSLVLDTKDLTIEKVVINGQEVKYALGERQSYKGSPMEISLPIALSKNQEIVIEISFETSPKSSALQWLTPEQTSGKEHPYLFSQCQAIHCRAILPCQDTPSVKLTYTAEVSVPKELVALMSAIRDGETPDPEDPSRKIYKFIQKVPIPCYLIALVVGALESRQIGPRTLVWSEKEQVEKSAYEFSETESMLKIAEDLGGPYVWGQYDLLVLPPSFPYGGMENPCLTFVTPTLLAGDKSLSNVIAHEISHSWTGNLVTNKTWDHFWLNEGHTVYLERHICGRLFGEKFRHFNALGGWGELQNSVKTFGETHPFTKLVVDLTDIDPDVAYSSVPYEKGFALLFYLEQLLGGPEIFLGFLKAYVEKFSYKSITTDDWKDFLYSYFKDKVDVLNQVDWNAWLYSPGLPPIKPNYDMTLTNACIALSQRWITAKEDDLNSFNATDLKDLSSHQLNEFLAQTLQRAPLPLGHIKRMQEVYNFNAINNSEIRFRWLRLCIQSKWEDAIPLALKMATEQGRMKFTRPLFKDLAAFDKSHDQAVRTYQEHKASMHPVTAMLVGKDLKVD

As usually defined, the pIC50 is −log10 of the IC50, conventionally taken in molar units. For the compound `CC(=O)N1CCC(N(C)Cc2ccc([C@H]3COc4ccccc4O3)cc2)CC1` [Example 14], the values for the pIC50 in assay [1] and in assay [2] were 8.63 and 6.81, respectively. Take `c1cnc2c(c1)OCC(c1ccc(CN3CCCC3)cc1)O2` (stereo not shown) [Example 15, 3-[4-(pyrrolidin-1-ylmethyl)phenyl]-2,3-dihydro[1,4]dioxin[2,3-b]pyridine]: the negative logarithm of the IC50 (pIC50) in assay [1] was 9.11.

Regarding `c1ccc2c(c1)OCC(c1ccc(CN3CCn4cnnc4C3)cc1)O2` (stereo not shown) [Example 16, 7-[4-(2,3-dihydro-1,4-benzodioxin-2-yl)benzyl]-5,6,7,8-tetrahydro[1,2,4,]triazolo[4,3-a]pyrazine], the pIC50 in assay [1] was 8.94. Regarding `O=S1(=O)CCN(Cc2ccc(C3COc4cccnc4O3)cc2)CC1` (stereo not shown) [Example 17, 3-{4-[(1,1-dioxidothiomorpholin-4-yl)methyl]phenyl}-2,3-dihydro[1,4]dioxino[2,3-b]pyridine], the pIC50 in assay [1] was 9.14. On to `CC(=O)NC1CCN(Cc2ccc([C@H]3COc4cccnc4O3)cc2)CC1` [Example 160, N-(1-{4-[(3S)-2,3-dihydro[1,4]dioxino[2,3-b]pyridin-3-yl)benzyl}piperidin-4-yl)acetamide], for which, in assay [2], the negative-log IC50 (pIC50) was 7.55.

Regarding `COC1CCN(Cc2ccc([C@H]3COc4cccnc4O3)cc2)C1` (stereo partly drawn) [Example 168, (3S)-3-{4-[(3-methoxypyrrolidin-1-yl)methyl]phenyl}-2,3-dihydro[1,4]dioxino[2,3-b]pyridine], the negative-log IC50 (pIC50) in assay [2] was 7.41. Turning to `c1cnc2c(c1)OC[C@H](c1ccc(CNC3CCC3)cc1)O2` [Example 173, N-{4-[(3S)-2,3-dihydro[1,4]dioxino[2,3-b]pyridin-3-yl]benzyl}cyclobutanamine], the pIC50 in assay [2] is 7.14. The same measure, in the same setting: then `NC(=O)NC1CCN(Cc2ccc([C@H]3COc4ccccc4O3)cc2)CC1` [Example 175, 1-(1-{4-[(2S)-2,3-dihydro-1,4-benzodioxin-2-yl]benzyl}piperidin-4-yl)urea], with 7.14. Regarding `CC(=O)NC1CCN(Cc2ccc([C@H]3COc4ccccc4O3)cc2)CC1` [Example 178, N-(1-(4-[(2S)-2,3-dihydro-1,4-benzodioxin-2-yl]benzyl}piperidin-4-yl)acetamide], the pIC50 in assay [2] was 6.80.

With `O=C(O)C[C@@H]1CCCN(Cc2ccc([C@H]3COc4ccccc4O3)cc2)C1` [Example 183, [(3S)-1-{4-[(2S)-2,3-dihydro-1,4-benzodioxin-2-yl]benzyl)piperidin-3-yl]acetic acid], the negative-log IC50 (pIC50) in assay [2] was 6.82.

With `CC(=O)N1CCN(Cc2ccc([C@H]3COc4cccnc4O3)cc2)CC1` [Example 185, 1-(4-{4-[(3S)-2,3-dihydro[1,4]dioxino[2,3-b]pyridin-3-yl]benzyl}piperazin-1-yl)ethanone], the pIC50 in assay [2] is 7.03. With `OC1CCN(Cc2ccc([C@H]3COc4cccnc4O3)cc2)CC1` [Example 186, 1-{4-[(3S)-2,3-dihydro[1,4]dioxino[2,3-b]pyridin-3-yl]benzyl}piperidin-4-ol], in assay [2], the pIC50 is 7.44. Consider `NC(=O)NC1CCN(Cc2ccc([C@H]3COc4cccnc4O3)cc2)CC1` [Example 187, 1-(1-{4-[(3S)-2,3-dihydro[1,4]dioxino[2,3-b]pyridin-3-yl]benzyl}piperidin-4-yl)urea], for which the negative-log IC50 (pIC50) in assay [2] was 6.75.

Take `CS(=O)(=O)NC1CCN(Cc2ccc([C@H]3COc4cccnc4O3)cc2)CC1` [Example 190, N-(1-{4-[(3S)-2,3-dihydro[1,4]dioxino[2,3-b]pyridin-3-yl]benzyl}piperidin-4-yl)methanesulfonamide]: the negative logarithm of the IC50 (pIC50) in assay [2] was 7.58.

For `c1ccc2c(c1)OC[C@@H](c1ccc(CN3CCOCC3)cc1)O2` [Example 199, 4-{4-[(2R)-2,3-dihydro-1,4-benzodioxin-2-yl]benzyl}morpholine], the negative logarithm of the IC50 (pIC50) in assay [1] was 7.40. As for `c1ccc2c(c1)OCC(c1ccc(CN3CCCC3)cc1)O2` (stereo not shown) [Example 200, 1-[4-(2,3-dihydro-1,4-benzodioxin-2-yl)benzyl]pyrrolidine], the pIC50 in assay [2] is 7.08. With `c1cnc2c(c1)OC[C@H](c1ccc(CN3CCOCC3)cc1)O2` [Example 204, (3S)-3-[4-(morpholin-4-ylmethyl)phenyl]-2,3-dihydro[1,4]dioxino[2,3-b]pyridine], the pIC50 in assay [2] was 7.02. For the compound `O=C(O)[C@@H]1CCN(Cc2ccc([C@H]3COc4ccccc4O3)cc2)C1` [Example 214, (3R)-1-{4-[(2S)-2,3-dihydro-1,4-benzodioxin-2-yl]benzyl}pyrrolidine-3-carboxylic acid], the pIC50 in assay [2] was 6.77. With `COCC(=O)NC1CCN(Cc2ccc([C@H]3COc4ccccc4O3)cc2)CC1` [Example 219, N-(1-{4-[(2S)-2,3-dihydro-1,4-benzodioxin-2-yl]benzyl}piperidin-4-yl)-2-methoxyacetamide], in assay [2], the pIC50 is 6.83. The same measure, in the same setting: next, `CC(C)(O)C(=O)NC1CCN(Cc2ccc([C@H]3COc4ccccc4O3)cc2)CC1` [Example 220, N-(1-{4-[(2S)-2,3-dihydro-1,4-benzodioxin-2-yl]benzyl}piperidin-4-yl)-2-hydroxy-2-methylpropanamide]: 7.04; `CC(c1ccc([C@H]2COc3ccccc3O2)cc1)N1CCC(C(=O)O)CC1` (stereo partly drawn) [Example 227, 1-(1-{4-[(2S)-2,3-dihydro-1,4-benzodioxin-2-yl]phenyl}ethyl)piperidine-4-carboxylic acid]: 6.51. The same measure, in the same setting: next, `CC(C)(C(=O)O)C1CCN(Cc2ccc([C@H]3COc4ccccc4O3)cc2)CC1` [Example 229, 2-(1-{4-[(2S)-2,3-dihydro-1,4-benzodioxin-2-yl]benzyl}piperidin-4-yl)-2-methylpropanoic acid]: 6.54; `O=C(O)c1ccc(CC2CCN(Cc3ccc([C@H]4COc5cccnc5O4)cc3)CC2)cc1` [Example 234, 4-[(1-{4-[(3S)-2,3-dihydro[1,4]dioxino[2,3-b]pyridin-3-yl]benzyl}piperidin-4-yl)methyl]benzoic acid]: 7.02. With `CCCCN(Cc1ccc(C(=O)O)cc1)Cc1ccc([C@H]2COc3ccccc3O2)cc1` [Example 237], the pIC50 in assay [2] is 7.02.
